A short description of the data set: Spectral properties of fluorescent dyes (Abs/Em). It counts as physicochemical. The following applies: for Abs: absorbance maximum, first number of Abs/Em; for Em: emission maximum, second number of Abs/Em. From the text: The spectral properties of dyes can be tuned by modifying the rhodamine core of dyes.

On to `CC(=O)O.CN(CCS(=O)(=O)O)C(=O)c1ccccc1-c1c2ccc(=N)cc-2oc2cc(N)ccc12` [Compound 1], for which the Abs amounted to 518 nm and the Em was found to be 539 nm.

For the compound `CC(=O)O.CN(CCS(=O)(=O)[O-])C(=O)c1ccccc1C1=c2cc3c(cc2Oc2cc4c(cc21)C(CS(=O)(=O)O)=CC(C)(C)N4C)=[N+](C)C(C)(C)C=C3CS(=O)(=O)O` [Compound 6], the Abs turned out to be 601 nm and the Em turned out to be 623 nm.

The values are drawn from US20160362418A1, “CARBOXAMIDE-SUBSTITUTED XANTHENE DYES” (priority 2015, published 2016).
